Source: patent US20140275102A1, “Solid State Forms of 6-[4-[3-((R)-2-Methylpyrrolidine-1-yl)-propoxy]phenyl] 2H-pyridazine-3-one Hydrochloride” (Cephalon Inc., priority 2013, published 2014)

What was measured:
Assay type in all cases: physicochemical
[1] = Solid-solid transition on storage at controlled humidity, 25° C. (XRPD)
Procedure: Approximately 100 mg of Form A1 was exposed to 100% RH at 25° C. over 1 day. Analysis by XRPD confirmed quantitative conversion of the material to Form […].

[2] = Gravimetric Vapor Sorption (GVS); conditions: for Moisture uptake / XRPD analysis of the after GVS sample: GVS 70-0-90% RH
Procedure: Gravimetric Vapor Sorption experiments have been carried out using the DVS-HT instrument (Surface Measurement Systems, London, UK). This instrument measures the uptake and loss of vapor gravimetrically using a recording ultra-microbalance with a mass resolution of ±0.1 μg. […] The desired temperature is maintained at ±0.1° C. […] (3 cycles). The DVS experiment was started at 70% RH (red line) to ensure that there was no moisture loss. The sample was kept at 70% RH for 2 hours. […] After each cycle the moisture uptake decreases to 21, 15, and 2.3% respectively at 90% RH. Significant polymorphic changes were observed by XRPD analysis of the “after GVS” samples.

[3] = Solid state stress stability at 40° C./75% RH (XRPD, stability-indicating HPLC); conditions: for Area Purity (%): 40° C./75% RH, HPLC
Procedure: Powder X-Ray Diffraction patterns were recorded on a PANalytical X Pert Pro diffractometer equipped with an X celerator detector using Cu Kα radiation at 40 kV and 40 mA. Kα1 radiation is obtained with a highly oriented crystal (Ge111) incident beam monochromator. A 10 mm beam mask, and fixed (¼°) divergence and anti-scatter (⅛°) slits were inserted on the incident beam side. A fixed 0.10 mm receiving slit was inserted on the diffracted beam side. […] The sample was spread on silicon zero background (ZBG) plate for the measurement. The sample was rotated at 4°/min on a PANalytical PW3064 Spinner.
Typically 10 μL aliquots of the sample solutions were diluted to 1 mL with acetonitrile and the assay concentrations were determined from an average of duplicate injections using the following HPLC method. The purity and impurity analyses are done using conventional HPLC.
Stress stability studies were performed to assess the influence of temperature and humidity on stability of Forms A1 and H4A1. A stability-indicating HPLC assay method was developed for quantification of Compound 1. The developed method, described above in section VII, is specific, accurate, precise and robust.

[4] = Stability to mechanical stress (grinding, XRPD); conditions: after thirty minutes of grinding
Procedure: A Wig-1-Bug (Piketech, USA) was used to grind Forms A1 and H-4A1. Each sample (50 mg) was ground for periods of 5, 10, 15 and 30 minutes. Each grinding was carried out in a 2.82 cm^3 container using 0.9 g stainless steel ball ([…]). The vial was swung through a 6.5° arc at 3200 rpm, causing the ball to strike the end of the vial at over 100 Hz.

[5] = Variable temperature XRPD (VT-XRPD)
Procedure: Variable temperature studies were performed with an Anton Paar TTK450 temperature chamber under computer control through an Anton Paar TCU100 temperature control unit. Typically the measurements were done with a nitrogen flow through the camera. Two measurement schemes were used, restricted and continuous. In the restricted mode, measurements were made, only after the TK450 chamber reached the requested temperature. In the continuous mode, the sample was heated at 10° C./minute and fast scans were measured as the temperature changed. After the requested temperature was reached, the sample was cooled at 35° C./minute and a slow scan measured 25° C. The temperatures chosen were based on DSC results. For the diffractometer set-up a 10 mm beam mask, 0.04 radian Soller slits and fixed (1⁄4°) divergence and anti-scatter (1⁄8°) slits were inserted on the incident beam side. A fixed 0.10 mm receiving slit, 0.04 radian Soller slits and a 0.02 mm Nickel filter were inserted on the diffracted beam side. […] A variable temperature study was performed for Form A1 according to the protocol set out in II above.

Q: For C[C@@H]1CCCN1CCCOc1ccc(-c2ccc(=O)[nH]n2)cc1.Cl [Form H4A1, 6-[4-[3-((R)-2-methylpyrrolidine-1-yl)-propoxy]phenyl]2H-pyridazine-3-one hydrochloride], which XRPD after storage ([1]; 25° C./0% RH for 7 days) is on record?
A: quantitative conversion of the material to Form A1

Q: And the Moisture uptake ([2]; at 90% RH, first cycle)?
A: 21%

Q: And the Moisture uptake ([2]; at 90% RH, second cycle)?
A: 15%

Q: What about the Moisture uptake ([2]; at 90% RH, third cycle) of the same compound?
A: 2.3%

Q: What about the “XRPD analysis of the after GVS sample” value ([2]; first cycle) of the same compound?
A: mixture of Forms A1 and H4A1

Q: What about the “XRPD analysis of the after GVS sample” value ([2]; second cycle) of the same compound?
A: mixture of Forms A1 and H4A1

Q: What about the “XRPD analysis of the after GVS sample” value ([2]; third cycle) of the same compound?
A: Complete conversion of Form H4A1 to Form A1

Q: What about the “Area Purity (%)” value ([3]; 0 days, hydrochloride) of the same compound?
A: 99.6%

Q: And the “Area Purity (%)” value ([3]; 7 days, hydrochloride)?
A: 99.5%

Q: What about the “Area Purity (%)” value ([3]; 14 days, hydrochloride) of the same compound?
A: 99.5%

Q: And the “Area Purity (%)” value ([3]; 28 days)?
A: 99.5%

Q: And the “Physical and chemical stability on storage” value ([3]; 28 days at 40° C. and 75% RH)?
A: physically and chemically stable

Q: With C[C@@H]1CCCN1CCCOc1ccc(-c2ccc(=O)[nH]n2)cc1.Cl [Form A1, 6-[4-[3-((R)-2-methylpyrrolidine-1-yl)-propoxy]phenyl]2H-pyridazine-3-one hydrochloride] as the compound, how does the “Change in crystal form on grinding (XRPD)” value [4] read?
A: did not generate a change in crystal form

Q: What about the “Crystallinity by XRPD after grinding” value [4] of the same compound?
A: crystallinity had been significantly reduced

Q: And the “XRPD after exposure to humidity” value ([1]; 100% RH at 25° C. over 1 day)?
A: quantitative conversion of the material to Form H4A1

Q: What about the “Hydrate formation under GVS conditions” value ([2]; GVS, 0-90% RH cycles) of the same compound?
A: did not appear to form a hydrate

Q: And the “Hygroscopicity (adsorption and desorption curves)” value ([2]; GVS, 0-90% RH cycles)?
A: not hygroscopic

Q: What about the “Amount of moisture adsorbed” value ([2]; GVS, at 90% RH) of the same compound?
A: approximately 1.8%

Q: What about the “Amount of moisture adsorbed” value ([2]; GVS, relative humidity not printed (below 90% RH)) of the same compound?
A: less than 0.8%

Q: What about the “XRPD before and after GVS” value ([2]; after GVS, 0-90% RH cycles) of the same compound?
A: no significant changes after GVS

Q: And the “Changes on storage as assessed by XRPD” value ([3]; 4 weeks of storage at 40 degrees C. at 75% relative humidity)?
A: No significant changes

Q: And the Chemical degradation ([3]; 40° C./75% RH after 4 weeks)?
A: chemical degradation was not observed

Q: What about the “Water uptake from the environment in the solid state” value ([3]; 40° C./75% RH after 4 weeks) of the same compound?
A: not observed to take up water

Q: What about the “Area Purity (%)” value ([3]; 0 days, hydrochloride) of the same compound?
A: 99.5%

Q: What about the “Area Purity (%)” value ([3]; 7 days, hydrochloride) of the same compound?
A: 99.6%

Q: And the “Area Purity (%)” value ([3]; 14 days, hydrochloride)?
A: 99.7%

Q: And the “Area Purity (%)” value ([3]; 28 days)?
A: 99.5%

Q: And the “Solid-solid transformation on heating (VT-XRPD)” value ([5]; temperature range of 20° C. to 250° C.)?
A: No solid-solid transformation was observed

Q: Which “Temperature at which polymorphic transformation to Form A1 was observed (VT-XRPD)” value ([5]; Form B1 made by dehydrating Form H4A1 at 25-100° C., 0% RH) does the source give for C[C@@H]1CCCN1CCCOc1ccc(-c2ccc(=O)[nH]n2)cc1.Cl [Form B1, 6-[4-[3-((R)-2-methylpyrrolidine-1-yl)-propoxy]phenyl]2H-pyridazine-3-one hydrochloride] here?
A: 220 °C
